The target of one experiment is T1, PD-1/PD-L1 interaction (Homo sapiens, UniProt Q9NZQ7).
T1 construct: expressed in transfected cells; host or cells: CHO cells (aAPC-PD-L1) co-cultured with Jurkat cells overexpressing PD-1 and an NFAT-luciferase reporter
Briefly: PD-1/PD-L1 NFAT reporter co-culture assay. Type of experiment: cell-based. As to conditions: Jurkat PD-1 NFAT-luciferase cells co-cultured with aAPC-PD-L1 CHO cells, 6 hrs at 37° C.; read-out: EC50 NFAT Luciferase. In outline:
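CHO aAPC-PD-L1 seeded overnight; PD-1/NFAT-luc Jurkat + cpd in RPMI 1640, 2% FBS added at once; 6 h, 37 °C; ONE-Glo luminescence; EC50, 4-parameter fit.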

For a further experiment, the target named is PD-1/PD-L1 (Homo sapiens, UniProt Q9NZQ7). The experiment can be described thus: PD-1/PD-L1 biochemical protein-protein interaction assay (ALPHA). Type of experiment: binding. Conditions: 0.3 nM His tagged PD-L1, 2.5 nM biotinylated Fc-PD-1, 60 minutes at 25° C., read-out: IC50 PD-L1-PD-1 Alpha IC50-mono PD-L1-fcP-D1. The procedure: Biological Activity PD-1/PD-L1 & CTLA/CD80 Biochemical Protein-Protein Interaction Assay
Sequence of PD-1/PD-L1 (Q9NZQ7 19-238 limits assumed): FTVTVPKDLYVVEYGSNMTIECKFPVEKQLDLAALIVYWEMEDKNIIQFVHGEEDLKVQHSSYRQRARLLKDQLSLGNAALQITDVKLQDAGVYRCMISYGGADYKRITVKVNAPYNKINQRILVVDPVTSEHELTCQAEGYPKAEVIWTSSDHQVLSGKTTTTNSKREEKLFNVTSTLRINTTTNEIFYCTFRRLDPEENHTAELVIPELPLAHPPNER
Compounds were tested in biochemical protein-protein interaction assays to determine if they can specifically block the interaction between the extracellular domains of PD-1/PD-L1 or CTLA/CD80. Binding of the protein pairs is measured using a bead based Amplified Luminescent Proximity Homogeneous Assay (ALPHA) platform. Binding of each protein pair results in proximity of the donor and acceptor beads which leads to an increase in ALPHA signal. Disruption of the protein-protein interaction with a test compound results in a decrease in ALPHA signal. Assays are performed in 25 mM Hepes (pH 7.4), 150 mM NaCl, 3.4 mM EDTA, 0.005% Tween 20, and 0.01% BSA. Final protein concentration in the assays were 0.3 nM (His tagged PD-L1), 2.5 nM (biotinylated Fc-PD-1), 1 nM (His tagged CTLA4) and 1 nM (biotinylated CD80). After an assay reaction time of 60 minutes at 25° C., binding was measured with addition of 20 μg/mL ALPHA assay acceptor beads (anti-His coated) and […] ALPHA assay donor beads (streptavidin coated). IC50 values were calculated from the fit of the dose-response curves to a four-parameter equation. Representative data are shown below in Table 1.

Molecules are shown by their SMILES.

We go through 16 compounds from patent publication US12590062B2, “PD-1/PD-L1 inhibitors” (Gilead Sciences, Inc., priority 2017, dated 2026).

T1 sequence (Q9NZQ7 19-290): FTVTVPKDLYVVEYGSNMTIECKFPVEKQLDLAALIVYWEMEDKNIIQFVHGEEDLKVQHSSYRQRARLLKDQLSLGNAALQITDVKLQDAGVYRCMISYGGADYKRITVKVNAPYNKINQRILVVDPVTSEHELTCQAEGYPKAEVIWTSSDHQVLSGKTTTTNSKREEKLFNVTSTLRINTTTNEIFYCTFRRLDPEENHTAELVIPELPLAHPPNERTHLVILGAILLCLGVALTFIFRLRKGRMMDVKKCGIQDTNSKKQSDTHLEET

With `COc1nc(OCc2cccc(-c3cccc(COc4ccc(CNC[C@@H](O)CC(=O)O)c(OC)n4)c3C)c2C)ccc1CNC[C@@H](O)CC(=O)O` [Example 19, (3S,3′S)-4,4′-((((((2,2′-dimethyl-[1,1′-biphenyl]-3,3′-diyl)bis(methylene))bis(oxy))bis(2-methoxypyridine-6,3-diyl))bis(methylene))bis(azanediyl))bis(3-hydroxybutanoic acid)], on PD-1/PD-L1 interaction, the EC50 was found to be 5140 nM. Also, the IC50 at PD-1/PD-L1 turned out to be 1.1 nM.

With `COc1nc(OCc2cccc(-c3cccc(COc4ccc(CNCCO)c(OC)n4)c3C)c2C)ccc1CNCCO` [Example 21, 2,2′-((((((2,2′-dimethyl-[1,1′-biphenyl]-3,3′-diyl)bis(methylene))bis(oxy))bis(2-methoxypyridine-6,3-diyl))bis(methylene))bis(azanediyl))bis(ethan-1-ol)], on PD-1/PD-L1 interaction, the EC50 turned out to be 1370 nM. Besides, the IC50 at PD-1/PD-L1 was determined as 17 nM.

Take `Cc1c(COc2cc(OCc3cccnc3)c(CNCCO)cc2Cl)cccc1-c1cccc(COc2cc(OCc3cccnc3)c(CNCCO)cc2Cl)c1C` [Example 22, 2,2′-((((((2,2′-dimethyl-[1,1′-biphenyl]-3,3′-diyl)bis(methylene))bis(oxy))bis(5-chloro-2-(pyridin-3-ylmethoxy)-4,1-phenylene))bis(methylene))bis(azanediyl))bis(ethan-1-ol)]: the EC50 on PD-1/PD-L1 interaction was determined as 2070 nM. The IC50 at PD-1/PD-L1 amounted to 34.9 nM.

Regarding `COc1nc(OCc2cccc(-c3cccc(COc4ccc(CNC[C@H](C)O)c(OC)n4)c3C)c2C)ccc1CNC[C@H](C)O` [Example 23, (2S,2′S)-1,1′-((((((2,2′-dimethyl-[1,1′-biphenyl]-3,3′-diyl)bis(methylene))bis(oxy))bis(2-methoxypyridine-6,3-diyl))bis(methylene))bis(azanediyl))bis(propan-2-ol)], the EC50 at PD-1/PD-L1 interaction is at least 50000 nM. Further, the IC50 on PD-1/PD-L1 came out at 40.6 nM.

Consider `COc1nc(OCc2cccc(-c3cccc(COc4ccc(CNC[C@@H](C)O)c(OC)n4)c3C)c2C)ccc1CNC[C@@H](C)O` [Example 24, (2R,2′R)-1,1′-((((((2,2′-dimethyl-[1,1′-biphenyl]-3,3′-diyl)bis(methylene))bis(oxy))bis(2-methoxypyridine-6,3-diyl))bis(methylene))bis(azanediyl))bis(propan-2-ol)], for which, at PD-1/PD-L1 interaction, the EC50 was determined as 1890 nM. In addition, on PD-1/PD-L1, the IC50 amounted to 41.7 nM.

With `N#Cc1cncc(COc2cc(OCc3cccc(-c4cccc(COc5cc(OCc6cncc(C#N)c6)c(CNCCO)cc5Cl)c4)c3)c(Cl)cc2CNCCO)c1` [Example 25, 5,5′-((((([1,1′-biphenyl]-3,3′-diylbis(methylene))bis(oxy))bis(4-chloro-6-(((2-hydroxyethyl)amino)methyl)-3,1-phenylene))bis(oxy))bis(methylene))dinicotinonitrile], at PD-1/PD-L1 interaction, the 50% effective concentration (EC50) turned out to be 3760 nM. In addition, the IC50 on PD-1/PD-L1 was determined as 20.9 nM.

Take `COc1nc(OCc2cccc(-c3cccc(COc4ccc(CN5C[C@@H](O)CC5=O)c(OC)n4)c3C)c2C)ccc1CNC[C@@H](O)CC(=O)O` [Example 26, (S)-3-hydroxy-4-(((6-((3′-(((5-(((S)-4-hydroxy-2-oxopyrrolidin-1-yl)methyl)-6-methoxypyridin-2-yl)oxy)methyl)-2,2′-dimethyl-[1,1′-biphenyl]-3-y)methoxy)-2-methoxypyridin-3-yl)methyl)amino)butanoic acid]: the EC50 at PD-1/PD-L1 interaction worked out at 18900 nM. On PD-1/PD-L1, the IC50 worked out at 16.2 nM.

`COc1cc(OCc2cccc(-c3cccc(COc4ccc(CNC[C@@H](O)CC(=O)O)c(OC)n4)c3C)c2C)ccc1CNC[C@@H](O)CC(=O)O` [Example 27, (S)-4-(((6-((3′-((4-((((S)-3-carboxy-2-hydroxypropyl)amino)methyl)-3-methoxyphenoxy)methyl)-2,2′-dimethyl-[1,1′-biphenyl]-3-yl)methoxy)-2-methoxypyridin-3-yl)methyl)amino)-3-hydroxybutanoic acid]: the concentration giving a half-maximal response (EC50) at PD-1/PD-L1 interaction is 25300 nM. In addition, at PD-1/PD-L1, the IC50 stood at 2.3 nM.

For `Cc1c(COc2cc(OCCN3CCOCC3)c(CNCCO)cc2Cl)cccc1-c1cccc(COc2cc(OCCN3CCOCC3)c(CNCCO)cc2Cl)c1C` [Example 28, 2,2′-((((((2,2′-dimethyl-[1,1′-biphenyl]-3,3′-diyl)bis(methylene))bis(oxy))bis(5-chloro-2-(2-morpholinoethoxy)-4,1-phenylene))bis(methylene))bis(azanediyl))bis(ethan-1-ol)], on PD-1/PD-L1 interaction, the EC50 came out at 663 nM. Also, the IC50 at PD-1/PD-L1 amounted to 12.7 nM.

Consider `Cc1c(COc2cc(OCc3cncc(C#N)c3)c(CNC[C@@H](O)CC(=O)O)cc2Br)cccc1-c1cccc(COc2cc(OCc3cncc(C#N)c3)c(CNC[C@@H](O)CC(=O)O)cc2Br)c1C` [Example 33, (3S,3′S)-4,4′-((((((2,2′-dimethyl-[1,1′-biphenyl]-3,3′-diyl)bis(methylene))bis(oxy))bis(5-bromo-2-((5-cyanopyridin-3-yl)methoxy)-4,1-phenylene))bis(methylene))bis(azanediyl))bis(3-hydroxybutanoic acid)], for which the half-maximal effective concentration (EC50) on PD-1/PD-L1 interaction is 322 nM. On PD-1/PD-L1, the IC50 is 0.4 nM.

For `C=Cc1cc(CNCCO)c(OCc2cncc(C#N)c2)cc1OCc1cccc(-c2cccc(COc3cc(OCc4cncc(C#N)c4)c(CNCCO)cc3C=C)c2C)c1C` [Example 36, 5,5′-((((((2,2′-dimethyl-[1,1′-biphenyl]-3,3′-diyl)bis(methylene))bis(oxy))bis(6-(((2-hydroxyethyl)amino)methyl)-4-vinyl-3,1-phenylene))bis(oxy))bis(methylene))dinicotinonitrile], the EC50 on PD-1/PD-L1 interaction amounted to 1070 nM. Also, the IC50 on PD-1/PD-L1 is 21.6 nM.

Regarding `Cc1c(COc2cc(OCc3cncc(C#N)c3)c(CNC[C@@H](O)CC(=O)O)cc2Br)cccc1-c1cccc(COc2cc(OCc3cncc(C#N)c3)c(CN3C[C@@H](O)CC3=O)cc2Br)c1C` [Example 38, (S)-4-((5-bromo-4-((3′-((2-bromo-5-((5-cyanopyridin-3-yl)methoxy)-4-(((S)-4-hydroxy-2-oxopyrrolidin-1-yl)methyl)phenoxy)methyl)-2,2′-dimethyl-[1,1′-biphenyl]-3-yl)methoxy)-2-((5-cyanopyridin-3-yl)methoxy)benzyl)amino)-3-hydroxybutanoic acid], the EC50 on PD-1/PD-L1 interaction stood at 2670 nM. Also, the IC50 on PD-1/PD-L1 amounted to 2.8 nM.

For the compound `Cc1c(COc2nc(OCc3cncc(S(C)(=O)=O)c3)c(CN[C@](C)(CO)C(=O)O)cc2Br)cccc1-c1cccc(COc2nc(OCc3cncc(S(C)(=O)=O)c3)c(CN[C@](C)(CO)C(=O)O)cc2Br)c1C` [Example 40, (2R,2′R)-2,2′-((((((2,2′-dimethyl-[1,1′-biphenyl]-3,3′-diyl)bis(methylene))bis(oxy))bis(5-bromo-2-((5-(methylsulfonyl)pyridin-3-yl)methoxy)pyridine-6,3-diyl))bis(methylene))bis(azanediyl))bis(3-hydroxy-2-methylpropanoic acid)], on PD-1/PD-L1 interaction, the 50% effective concentration (EC50) was found to be 176 nM. Also, on PD-1/PD-L1, the concentration for half-maximal inhibition (IC50) worked out at 0.1 nM.

As for `Cc1c(COc2cc(OCc3cncc(C#N)c3)c(CN3C[C@@H](O)C[C@H]3C(=O)O)cc2Cl)cccc1-c1cccc(COc2cc(OCc3cncc(C#N)c3)c(CN3C[C@@H](O)C[C@H]3C(=O)O)cc2Cl)c1C` [Example 58, (2S,2′S,4S,4'S)-1,1′-(((((2,2′-dimethyl-[1,1′-biphenyl]-3,3′-diyl)bis(methylene))bis(oxy))bis(5-chloro-2-((5-cyanopyridin-3-yl)methoxy)-4,1-phenylene))bis(methylene))bis(4-hydroxypyrrolidine-2-carboxylic acid)], on PD-1/PD-L1 interaction, the EC50 stood at 822 nM. The IC50 on PD-1/PD-L1 was 0.3 nM.

Regarding `COc1nc(OCc2cccc(-c3cccc(COc4nc(OC)c(CN5CC[C@H]5C(=O)O)cc4Br)c3C)c2C)c(Br)cc1CN1CC[C@H]1C(=O)O` [Example 59, (2S,2′S)-1,1′-(((((2,2′-dimethyl-[1,1′-biphenyl]-3,3′-diyl)bis(methylene))bis(oxy))bis(5-bromo-2-methoxypyridine-6,3-diyl))bis(methylene))bis(azetidine-2-carboxylic acid)], the EC50 on PD-1/PD-L1 interaction amounted to 1250 nM. For the same compound, the IC50 at PD-1/PD-L1 was found to be 0.1 nM.

For `COc1nc(OCc2cccc(-c3cccc(COc4nc(OC)c(CN5CC[C@H]5C(=O)O)cc4Br)c3C)c2C)ccc1CN1CC[C@H]1C(=O)O` [Example 60, (S)-1-((6-((3′-(((3-bromo-5-(((S)-2-carboxyazetidin-1-yl)methyl)-6-methoxypyridin-2-yl)oxy)methyl)-2,2′-dimethyl-[1,1′-biphenyl]-3-yl)methoxy)-2-methoxypyridin-3-yl)methyl)azetidine-2-carboxylic acid], the EC50 at PD-1/PD-L1 interaction was at least 50000 nM. In addition, the 50% inhibitory concentration (IC50) at PD-1/PD-L1 turned out to be 2.3 nM.
